Measurements taken from ChEMBL document CHEMBL2021896, “A novel pyrimidine derivatives with aryl urea, thiourea and sulfonamide moieties: synthesis, anti-inflammatory and antimicrobial evaluation” (2012).
Converted amounts (≈) assume the structure as drawn. The source made the active and inactive calls. No cut-off for these calls is given here.

Tests used:
[1] = test system: THP-1; assay: Antiinflammatory activity in human PMA-stimulated THP1 cells assessed as inhibition of LPS-induced TNFalpha production at 10 uM treated 30 mins before LPS challenge measured after 24 hrs by ELISA; assay type: functional
[2] = test system: THP-1; assay: Antiinflammatory activity in human PMA-stimulated THP1 cells assessed as inhibition of LPS-induced IL-6 production at 10 uM treated 30 mins before LPS challenge measured after 24 hrs by ELISA; assay type: functional
[3] = test system: Staphylococcus aureus; assay: Antibacterial activity against Staphylococcus aureus up to 200 ug/ml by agar well diffusion method; assay type: functional, organism-based
[4] = test system: Bacillus subtilis; assay: Antibacterial activity against Bacillus subtilis up to 200 ug/ml by agar well diffusion method; assay type: functional, organism-based
[5] = test system: Escherichia coli; assay: Antibacterial activity against Escherichia coli up to 200 ug/ml by agar well diffusion method; assay type: functional, organism-based
[6] = test system: Salmonella typhimurium; assay: Antibacterial activity against Salmonella typhimurium up to 200 ug/ml by agar well diffusion method; assay type: functional, organism-based; details: Salmonella enterica subsp. enterica serovar Typhimurium
[7] = test system: Candida albicans; assay: Antifungal activity against Candida albicans by agar well diffusion method; assay type: functional
[8] = test system: Aspergillus niger; assay: Antifungal activity against Aspergillus niger by agar well diffusion method; assay type: functional
[9] = test system: Fusarium solani; assay: Antifungal activity against Fusarium solani by agar well diffusion method; assay type: functional
[10] = test system: Aspergillus flavus; assay: Antifungal activity against Aspergillus flavus by agar well diffusion method; assay type: functional
[11] = test system: Staphylococcus aureus; assay: Antibacterial activity against Staphylococcus aureus by agar well diffusion method; assay type: functional
[12] = test system: Bacillus subtilis; assay: Antibacterial activity against Bacillus subtilis by agar well diffusion method; assay type: functional
[13] = test system: Escherichia coli; assay: Antibacterial activity against Escherichia coli by agar well diffusion method; assay type: functional
[14] = test system: Salmonella typhimurium; assay: Antibacterial activity against Salmonella typhimurium by agar well diffusion method; assay type: functional, Salmonella enterica subsp. enterica serovar Typhimurium; details: Salmonella enterica
[15] = test system: Fusarium solani; assay: Antifungal activity against Fusarium solani up to 200 ug/ml by agar well diffusion method; assay type: functional, organism-based
[16] = test system: Aspergillus niger; assay: Antifungal activity against Aspergillus niger up to 200 ug/ml by agar well diffusion method; assay type: functional, organism-based
[17] = test system: Candida albicans; assay: Antifungal activity against Candida albicans up to 200 ug/ml by agar well diffusion method; assay type: functional, organism-based
[18] = test system: Aspergillus flavus; assay: Antifungal activity against Aspergillus flavus up to 200 ug/ml by agar well diffusion method; assay type: functional, organism-based

Row | MIC [7] | MIC [8] | MIC [9] | MIC [10] | MIC [11] | MIC [12] | MIC [13] | MIC [14] | SMILES | inhibition at 10 µM [1] | inhibition at 10 µM [2] | Activity [3] | Activity [4] | Activity [5] | Activity [6] | Activity [15] | Activity [16] | Activity [17] | Activity [18]
1 | 80 µg/mL (≈ 169 µM) | 90 µg/mL (≈ 190 µM) | 75 µg/mL (≈ 158 µM) | 80 µg/mL (≈ 169 µM) |  |  |  |  | N#Cc1ccc(NC(=O)Nc2ccc(-c3cc(Nc4cccc(C(F)(F)F)c4)ncn3)cc2)cc1 | 61% | 80% | inactive | inactive | inactive | inactive |  |  |  | 
2 | 25 µg/mL (≈ 47.1 µM) | 15 µg/mL (≈ 28.3 µM) | 15 µg/mL (≈ 28.3 µM) | 40 µg/mL (≈ 75.4 µM) | 45 µg/mL (≈ 84.8 µM) | 30 µg/mL (≈ 56.5 µM) | 25 µg/mL (≈ 47.1 µM) | 35 µg/mL (≈ 66 µM) | COc1ccc(OC)c(S(=O)(=O)Nc2ccc(-c3cc(Nc4cccc(C(F)(F)F)c4)ncn3)cc2)c1 | 8% | 26% |  |  |  |  |  |  |  | 
3 | 30 µg/mL (≈ 54.1 µM) | 60 µg/mL (≈ 108 µM) | 20 µg/mL (≈ 36.1 µM) | 20 µg/mL (≈ 36.1 µM) | 10 µg/mL (≈ 18 µM) | 10 µg/mL (≈ 18 µM) | 20 µg/mL (≈ 36.1 µM) | 10 µg/mL (≈ 18 µM) | O=S(=O)(Nc1ccc(-c2cc(Nc3cccc(C(F)(F)F)c3)ncn2)cc1)c1ccccc1OC(F)(F)F | 0% | 0% |  |  |  |  |  |  |  | 
4 | 90 µg/mL (≈ 382 µM) | 90 µg/mL (≈ 382 µM) |  | 90 µg/mL (≈ 382 µM) |  |  |  |  | O=[N+]([O-])c1ccc(-c2cc(Cl)ncn2)cc1 | 0% | 0% | inactive | inactive | inactive | inactive | inactive |  |  | 
5 | 80 µg/mL (≈ 146 µM) | 95 µg/mL (≈ 173 µM) |  | 95 µg/mL (≈ 173 µM) | 80 µg/mL (≈ 146 µM) |  |  |  | O=S(=O)(Nc1ccc(-c2cc(Nc3cccc(C(F)(F)F)c3)ncn2)cc1)c1ccc(Br)cc1 | 6% | 11% |  | inactive | inactive | inactive |  |  |  | 
6 | 80 µg/mL (≈ 161 µM) |  | 90 µg/mL (≈ 182 µM) | 90 µg/mL (≈ 182 µM) |  |  |  |  | COc1ccc(NC(=S)Nc2ccc(-c3cc(Nc4cccc(C(F)(F)F)c4)ncn3)cc2)cc1 | 3% | 8% | inactive | inactive | inactive | inactive |  | inactive |  | 
7 | 20 µg/mL (≈ 48.1 µM) | 15 µg/mL (≈ 36 µM) | 15 µg/mL (≈ 36 µM) | 20 µg/mL (≈ 48.1 µM) |  |  |  |  | Clc1ccc(COC(Cn2ccnc2)c2ccc(Cl)cc2Cl)c(Cl)c1 (configuration not stated) [MICONAZOLE] |  |  |  |  |  |  |  |  |  | 
8 | 90 µg/mL (≈ 182 µM) |  | 90 µg/mL (≈ 182 µM) | 90 µg/mL (≈ 182 µM) | 75 µg/mL (≈ 151 µM) | 90 µg/mL (≈ 182 µM) | 90 µg/mL (≈ 182 µM) | 90 µg/mL (≈ 182 µM) | CSc1ccc(NC(=O)Nc2ccc(-c3cc(Nc4cccc(C(F)(F)F)c4)ncn3)cc2)cc1 | 0% | 0% |  |  |  |  |  | inactive |  | 
9 | 90 µg/mL (≈ 186 µM) |  | 90 µg/mL (≈ 186 µM) | 90 µg/mL (≈ 186 µM) | 90 µg/mL (≈ 186 µM) | 90 µg/mL (≈ 186 µM) | 90 µg/mL (≈ 186 µM) |  | Fc1ccccc1NC(=S)Nc1ccc(-c2cc(Nc3cccc(C(F)(F)F)c3)ncn2)cc1 | 50% | 62% |  |  |  | inactive |  | inactive |  | 
10 | 55 µg/mL (≈ 115 µM) | 35 µg/mL (≈ 73 µM) | 20 µg/mL (≈ 41.7 µM) | 20 µg/mL (≈ 41.7 µM) | 35 µg/mL (≈ 73 µM) | 30 µg/mL (≈ 62.6 µM) | 30 µg/mL (≈ 62.6 µM) | 30 µg/mL (≈ 62.6 µM) | COc1cccc(NC(=O)Nc2ccc(-c3cc(Nc4cccc(C(F)(F)F)c4)ncn3)cc2)c1 | 11% | 18% |  |  |  |  |  |  |  | 
11 |  |  |  |  | 25 µg/mL (≈ 50.9 µM) | 40 µg/mL (≈ 81.4 µM) | 20 µg/mL (≈ 40.7 µM) | 40 µg/mL (≈ 81.4 µM) | CC(C)c1ccc(NC(=O)Nc2ccc(-c3cc(Nc4cccc(C(F)(F)F)c4)ncn3)cc2)cc1 | 71% | 90% |  |  |  |  | inactive | inactive | inactive | inactive
12 | 40 µg/mL (≈ 83.8 µM) | 75 µg/mL (≈ 157 µM) | 60 µg/mL (≈ 126 µM) | 30 µg/mL (≈ 62.8 µM) | 90 µg/mL (≈ 188 µM) | 90 µg/mL (≈ 188 µM) |  |  | Cc1ccc(NC(=O)Nc2ccc(-c3cc(Nc4cccc(C(F)(F)F)c4)ncn3)cc2)cc1C | 16% | 27% |  |  | inactive | inactive |  |  |  | 

Row | SMILES | MIC [7] | MIC [8] | MIC [9] | MIC [10] | MIC [11] | MIC [12] | MIC [13] | MIC [14] | inhibition at 10 µM [1] | inhibition at 10 µM [2] | Activity [3] | Activity [4] | Activity [5] | Activity [6] | Activity [15] | Activity [16] | Activity [17] | Activity [18]
13 | O=C(O)c1cn(C2CC2)c2cc(N3CCNCC3)c(F)cc2c1=O [CIPROFLOXACIN] |  |  |  |  | 20 µg/mL (≈ 60.4 µM) | 15 µg/mL (≈ 45.3 µM) | 15 µg/mL (≈ 45.3 µM) | 20 µg/mL (≈ 60.4 µM) |  |  |  |  |  |  |  |  |  | 
